These results are taken from PubChem BioAssay (NCI).

“And” between values parts separate entries of the source, which are not always exact repeats. Equal entries are not always repeated.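 Interpolation was linear, between the two tested concentrations surrounding the appropriate level; five concentrations were tested over 48 hours in 96-well plates. GI50 is the concentration that inhibits growth by half. TGI: concentration producing complete growth inhibition.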

Broadly, the TGI is the concentration giving total growth inhibition. A high value points to lower sensitivity of the cells. As usually defined, the GI50 is the concentration that inhibits growth by half.

What all share (assay): DTP human tumour cell line panel, 48 h
The test system of test [1] is LOX IMVI melanoma.
The test system of test [2] is NCI-H23 lung.
For test [3], the system named is CAKI-1 renal.
In test [4] the test system is A498 renal.
The test system of test [5] is MOLT-4 leukemia.
Test [6] deals with M14 melanoma.
Test [7] has as its system MALME-3M melanoma.
Test [8] concerns SNB-19 CNS.
The test system of test [9] is OVCAR-3 ovarian.

`Nc1nc(=S)[nH]c(C(=O)Nc2ccc(Cl)c(Cl)c2)c1-c1ccc(Cl)cc1`: the TGI in test [1], in test [2], in test [3], in test [4], in test [5] and in test [6] was more than 100 µM in each case. Besides, the TGI in [7], in test [8] and in [9] was more than 100 µM each time.

With `COc1cc(C(=O)C/C(CCC(=O)Nc2ccc(Cl)cc2C)=N/NC(=O)C(N)=O)ccc1O`, the TGI in [1], in [2], in [3], in test [4], in [5] and in test [6] was more than 100 µM throughout. Also, the TGI in test [7], in test [8] and in [9] was more than 100 µM throughout.

With `COC1OC(C)C(O)CC1OS(=O)(=O)c1ccc(C)cc1` (configuration not stated), the TGI in [1], in test [2], in test [3], in test [4], in test [5] and in test [6] was more than 100 µM each time. Further, the TGI in test [7], in test [8] and in [9] was more than 100 µM throughout.

On to `C1CCN(C2OC3C(COC3N3CCCCC3)OC2OC2CCO[C@@H]2N2CCCCC2)CC1` (some centres not stated), for which the TGI in [1] was more than 100 µM; in [2] it was 78.6 µM; in test [3], more than 100 µM; in test [4], more than 100 µM; in [5] it was 84.7 µM; in test [6], more than 100 µM. The TGI was 83.2 µM in test [7], more than 100 µM in test [8] and 89.3 µM in test [9].

With `O=C(O)CC12C3C4C5C3C1C5C42` (configuration not stated), the TGI in test [1], in test [2], in [3], in test [4], in test [5] and in [6] was more than 100 µM in each case. In addition, the TGI in test [7], in test [8] and in [9] was more than 100 µM throughout.

As for `CCc1nc(N)nc(C(=O)NCCNC(=O)c2nc(N)nc(CC)c2C)c1C`, the total growth inhibition concentration (TGI) in test [1], in test [2], in test [3], in [4], in [5] and in test [6] was more than 100 µM throughout. The TGI in [7], in [8] and in test [9] was more than 100 µM throughout.

`Cc1ccc(/C=C/C(=O)c2sc(-c3cccnc3)nc2C)cc1`: the TGI in test [1], in test [2], in test [3], in test [4], in [5] and in test [7] was more than 100 µM each time. Besides, the concentration for total growth inhibition (TGI) in test [9] was more than 100 µM.

`O=C1NC2CCC(C2)C1c1ccccc1` (configuration not stated): the total growth inhibition concentration (TGI) in test [1], in test [2], in test [4], in test [5], in test [6] and in test [7] was more than 100 µM in each case. Also, the TGI in [8] and in [9] was more than 100 µM in each case.

In the case of `CCC[CH2][Sn]([CH2]CCC)([O]C(=O)C(N)CSC)[O]C(=O)C(N)CSC` (configuration not stated), the GI50 in test [1] was 7.17 µM; in test [2] it was 2.75 µM; in test [3] it was 5 µM; in [4], 3.91 µM; in test [5], 2.42 µM; in test [6] it was 10.5 µM. In addition, the GI50 in [7] was 7.19 µM; in [8], 12.1 µM; in test [9] it was 12.5 µM. Further, the TGI was determined as 26.3 µM in test [1]; 13.1 µM in [2]; 17.4 µM in [3]; 7.65 µM in [5]; 16.2 µM in test [6]; 48.7 µM in test [7]. Further, the TGI in test [8] came out at 24.6 µM; in [9], 25.4 µM.

Take `CC(=O)/C(=C\C1=CCCO1)C(=O)Nc1ccccc1C`: the TGI in [1], in test [2], in [3], in test [5], in test [6] and in test [7] was more than 100 µM throughout. The concentration for total growth inhibition (TGI) in test [8] and in test [9] was more than 100 µM throughout.

For `COC(=O)C12CC3CC(C1)CC(C(=O)OC)(C3)C2`, the TGI in [1], in test [2], in test [3], in test [4], in test [5] and in test [6] was more than 100 µM each time. Further, the TGI in [8] and in test [9] was more than 100 µM each time.

As for `CC(=O)Nc1c(C)ccc2c1C(=O)c1ccccc1C2=O`, the TGI in test [1], in test [3], in test [4], in test [5], in [6] and in [7] was more than 100 µM each time.

For `CC[O-].CC[O-].O=C1C(c2ccccc2)=C([O-])c2ccccc21.O=C1C(c2ccccc2)=C([O-])c2ccccc21.[Ti+4]`, the GI50 in [1], in test [2], in [3], in test [5], in test [6] and in test [7] was more than 100 µM in each case. In addition, in test [9], the GI50 was more than 100 µM. For the same compound, the total growth inhibition concentration (TGI) in test [1], in test [2], in test [3], in test [5], in [6] and in test [7] was more than 100 µM each time. This compound also gave a TGI in test [9] of more than 100 µM.

`CCOC(=O)NC(=O)c1cn(CCCOC(=O)CCCCCCCCCCC(=O)OCCCn2cc(C(=O)NC(=O)OCC)c(=O)n(C)c2=O)c(=O)n(C)c1=O`: the TGI in test [1], in test [2], in test [3], in test [4], in [5] and in test [6] was more than 100 µM in each case. Moreover, the TGI in test [7], in test [8] and in test [9] was more than 100 µM throughout.

For the compound `COc1ccc2cc3[n+](cc2c1OC)CCc1cc(O)c(O)cc1-3`, the TGI in test [1], in test [2], in test [3], in [4], in test [5] and in [6] was more than 100 µM each time. Moreover, the TGI in test [7], in [8] and in test [9] was more than 100 µM in each case.

Take `CN(C)CC/C(=N\Nc1ccccc1)c1ccccc1`: the total growth inhibition concentration (TGI) in test [2] was more than 100 µM; in test [3] it was 11.2 µM; in [5], more than 100 µM; in test [6] it was 4.73 µM; in [7], 25.6 µM; in [8], more than 100 µM. Further, in test [9], the TGI was 27.7 µM.

As for `O=c1[nH]c2c3ccccc3ccc2c2cc3c(cc12)OCO3`, the TGI in test [1], in test [2], in test [3], in test [5], in test [6] and in [7] was more than 100 µM each time. Further, the TGI in [8] and in test [9] was more than 100 µM throughout.

Turning to `CC(=O)N/C(=C\c1cccc([N+](=O)[O-])c1)c1nc2c3c(ccc2[nH]1)C(=O)c1ccccc1C3=O`, the TGI in test [1] is more than 100 µM; in test [2], more than 100 µM; in test [3], more than 100 µM; in [4] it was more than 100 µM; in [5], more than 62.9 µM; in [6] it was more than 100 µM. In addition, the TGI in [7], in test [8] and in test [9] was more than 100 µM in each case.

Consider `Cc1cc(C)nc(NS(=O)(=O)c2ccc(Nc3c4ccc(Cl)cc4nc4c(C(=O)Nc5ccc(S(=O)(=O)N=C(N)N)cc5)cccc34)cc2)n1`, for which the TGI in test [1], in test [2], in [4], in test [5], in [6] and in test [7] was more than 100 µM throughout. In addition, the TGI in test [8] and in test [9] was more than 100 µM in each case.

Turning to `CCN(CC)CCNC(=O)c1nn(C)c(=S)[nH]c1=S`, the TGI in test [1], in [2], in [3], in test [5], in test [6] and in test [7] was more than 100 µM each time. The TGI in [8] and in test [9] was more than 100 µM in each case.

For the compound `CC/C(=C(/CC)c1ccc(O)cc1)c1ccc([O-])cc1.CC/C(=C(/CC)c1ccc(O)cc1)c1ccc([O-])cc1.O=C([CH-]C(=O)c1ccccc1)c1ccccc1.O=C([CH-]C(=O)c1ccccc1)c1ccccc1.[Ti+4]`, the GI50 in [1] is 12.5 µM; in test [3], 16.3 µM; in [5] it was 4.93 µM; in test [6], 8.34 µM; in test [7], 7.53 µM; in [8] it was 14.7 µM. In addition, the GI50 in [9] was 27.7 µM. The TGI in test [1] is 27.5 µM; in test [3] it was 61 µM; in test [5] it was more than 100 µM; in [7], 20.3 µM; in test [8] it was 27.8 µM; in [9], more than 100 µM.

For the compound `CCn1c(O)c(C=N)c(=O)n(CC)c1=O`, the TGI in test [1], in [2], in test [3], in [4], in test [5] and in test [6] was more than 100 µM in each case. The TGI in test [7], in test [8] and in [9] was more than 100 µM each time.

As for `Cc1ccc(NC(=O)CCC/C(CC(=O)c2ccc(Br)cc2)=N/NC(=O)CC#N)cc1`, the TGI in test [1], in [2], in [5], in [6], in [7] and in test [8] was more than 100 µM each time. Moreover, the TGI in test [9] was more than 100 µM.

On to `CCCCc1ccc(-n2c3nc(=O)n(C)c(=O)c-3nc3ccccc32)cc1`, for which the TGI was 8.19 µM in [2]; 54.5 µM in test [3]; 32.7 µM in test [4]; 41.9 µM in test [5]; 21.7 µM in test [6]; 19.7 µM in test [7]. The values for the concentration for total growth inhibition (TGI) in test [8] and in [9] were 21.2 µM and 10.1 µM, respectively.

On to `O=[N+]([O-])c1ccc(N=Nc2c(O)ccc3ccccc23)cc1`, for which the TGI in test [1], in test [2], in test [3], in test [4], in test [5] and in test [6] was more than 100 µM each time. Further, the TGI in test [8] and in test [9] was more than 100 µM each time. Further, the GI50 in test [2] is 42.9 µM and > 100 µM; in [6] it was 43.6 µM and > 100 µM.

In the case of `O=C1c2ccccc2C2(O)NC(=S)N(c3ccccc3)C12O` (configuration not stated), the TGI in [1], in [2], in [3], in test [5], in test [6] and in test [7] was more than 100 µM each time. Moreover, the TGI in test [8] and in test [9] was more than 100 µM throughout.

As to `COC(=O)C(=O)C(C#N)c1ccc(CC#N)cc1` (configuration not stated), the TGI in test [1], in test [2], in [3], in test [5], in [6] and in [7] was more than 100 µM throughout. For the same compound, the TGI in test [8] and in [9] was more than 100 µM in each case.

Consider `Cc1nc2cc(N)c(F)cc2[nH]1`, for which the TGI in test [1], in test [2], in test [3], in test [4], in [5] and in test [7] was more than 100 µM in each case. Further, the total growth inhibition concentration (TGI) in test [8] was more than 100 µM.

Take `COC(=O)C12CC(c3ccccc31)C1C(=O)OC(=O)C12` (configuration not stated): the TGI in [1], in test [2], in test [5], in test [6], in test [7] and in test [8] was more than 100 µM in each case. The same compound returned a TGI in [9] of more than 100 µM.
